Laboratory results published in patent EP4480314A1, “BENEFICIAL SALTS FOR ENHANCING BIOCONTROL EFFICACY OF FUNGAL SPORES” (priority 2023, dated 2024).
Values after ≈ are worked out from the molar mass of the structure shown.

Assays:
[1] = cited from earlier work
[2] = cited from earlier work; remark: listed apart in the source
white flies = details: spores of C. fumosorosea supplemented with low concentrations of the acid in the spray liquid; PCT/EP2022/086495; cited from earlier work
Bemisia tabaci [3] = test: Insecticidal activity against white flies on single-leaf cotton plants, spray application (Example 1, spores of C. javanica strain Apopka 97); type: in vivo; design: expected control (Colby) less than the observed level of control: concentration or dose not given beside the values; details: for expected control (Colby) less than the observed level of control: in composition with 1,0E+07 spores/ml C. javanica Apopka 97; for Abbott efficacy: spores 1,0E+07 s/ml, cotton, twelve days after treatment, control pure water; for White fly mortality: composition of spores and salt compared with spores alone or the salt alone
Bemisia tabaci [4] = test: Insecticidal activity against white flies on bean plants (Phaseolus vulgaris), microsprayer application (Example 2, spores of C. javanica strain GF 511); type: in vivo
Protocol: For testing insecticidal activity against white flies, 9-day-old plants (Phaseolus vulgaris cv. Pérola) with two primary leaves grown with Oxisol (2 L) with fertilizer NPK 5-30-15 were kept in a screenhouse covered with a fine screen fabric (50 mesh). Adult-infested plants with Bemisia tabaci were shaken and placed next to pest-free bean plants (9 days old with two primary leaves) for 6 to 8h to allow oviposition. This exposure provided more than 200 eggs per leaf. Afterwards the plants were transferred to a clean and insect-free room and incubated at 25°C until hatching and development of immobile N2 nymphal stages (10 to 12 days after infestation). Per treatment, seven pots with four bean plants in the two-leave stage were used as biological replicates. The experiment was conducted in a randomized block design in five screenhouse benches, one for each repetition, with the treatments randomized within the block.
Before spraying, whitefly nymphs were checked for good coverage on the leaves and the infected plants were sprayed with the prepared solutions as detailed above. […] The amount is adjusted in function of the size of the primary leaves in order to ensure a good coverage. Afterwards, the plants are incubated under controlled conditions (30 °C and 40 % RH). Fourteen days after treatment, one plant/pot (two leaves per treatment) were destructively evaluated for insect mortality. Nymphal mortality was assessed under a dissecting stereomicroscope (Leica) at x40 magnification. For confirming the fungal infection, a small red dot was marked on the leaf next to the dead nymphs. The leaves were then incubated inside Gerbox box with a wet cotton added to the leaf petiole for four days at room temperature. The dead marked nymphs presenting sporulation (i.e., mycosed nymphs) were considered infected by the fungus.

[5] = Table 2, citric acid 0,05%, ammonium citrate di-basic 0,06%, potassium citrate 0,08%
[6] = Table 1, citric acid 0,1%, glutamic acid monosodic salt 0,08%

## O=C(O)C=C(CC(=O)O)C(=O)O [Aconitic acid]
[1]
  water solubility (g/l) at room temperature: 400 g/L (≈ 2300 mM)
[2]
  pka(1): 2,8

## O=C(O)c1cccnc1C(=O)O [Chinolinic acid]
[1]
  water solubility (g/l) at room temperature: 10 g/L (≈ 59.8 mM)

## O=C(O)c1cccc(C(=O)O)n1 [Dipicolinic acid]
White flies
  efficacy of this entomopathogenic fungus against white flies: increase the efficacy

## O=C(O)c1ccc(C(=O)O)nc1 [Isocinchomeronic acid]
[2]
  pka(1): 2,31

## O=C(O)CC(C(=O)O)C(O)C(=O)O (stereo not shown) [Isocitric acid]
[1]
  water solubility (g/l) at room temperature: 53 g/L (≈ 276 mM)

## CC[C@H](C)[C@H](N)C(=O)O [Isoleucine]
[2]
  pka(1): 2,32

## O=C(O)c1ccnc(C(=O)O)c1 [Lutidinic acid]
[2]
  pka(1): 2,17

## O=C(O)CC(O)C(=O)O (stereo not shown) [Malic acid]
[1]
  water solubility (g/l) at room temperature: 558 g/L (≈ 4160 mM)

## N[C@@H](Cc1ccccc1)C(=O)O [Phenylalanine]
[1]
  water solubility (g/l) at room temperature: >10 g/L

## O=C(O)c1ccccn1 [Picolinic acid]
[1]
  water solubility (g/l) at room temperature: 887 g/L (≈ 7200 mM)
[2]
  pka(1): 5,39

## N[C@@H](C[SeH])C(=O)O [Selenocysteine]
[1]
  water solubility (g/l) at room temperature: 400 g/L (≈ 2380 mM)

## N[C@@H](Cc1c[nH]c2ccccc12)C(=O)O [Tryptophan]
[1]
  water solubility (g/l) at room temperature: 11,4 g/l
[2]
  pka(1): 2,46

## CC(C)[C@H](N)C(=O)O [Valine]
[2]
  pka(1): 2,39

## O=C(O)CCC(=O)C(=O)O [alpha-ketoglutaric acid]
[1]
  water solubility (g/l) at room temperature: 100 g/L (≈ 684 mM)

## N.N.O=C(O)CC(O)(CC(=O)O)C(=O)O [ammonium citrate di-basic]
Bemisia tabaci [3]; Table 2
  expected control (Colby) less than the observed level of control: 27,89%
Bemisia tabaci [3]; [5]
  Abbott efficacy: 6,34
Bemisia tabaci [3]
  White fly mortality: significantly and synergistically higher

## O=C(O)CC(O)(CC(=O)O)C(=O)O [citric acid, Citric acid, reference compound]
White flies
  efficacy of this entomopathogenic fungus against white flies: increase the efficacy
Bemisia tabaci [4]; Table 3, spores 1,0E+07 s/ml, citric acid 0,05%, glutamic acid monosodium salt 0,08%, all with 0,05% Tween, bean plants, fourteen days after treatment, control Tween 80 (0.05% v/v)
  Abbott efficacy: 3.56
Bemisia tabaci [3]; Table 1
  expected control (Colby) less than the observed level of control: 11,63%
Bemisia tabaci [3]; [6]
  Abbott efficacy: 9,86
Bemisia tabaci [3]; Table 2
  expected control (Colby) less than the observed level of control: 24,27%
Bemisia tabaci [3]; [5]
  Abbott efficacy: 7,88

## N[C@@H](CCC(=O)O)C(=O)[O-].[Na+] [glutamic acid monosodic salt, glutamic acid monosodium salt]
Bemisia tabaci [4]
  Abbott efficacy: 7,57
  expected control (Colby) less than the observed level of control: 11,03%
Bemisia tabaci [3]; Table 1
  expected control (Colby) less than the observed level of control: 26,44%
Bemisia tabaci [3]; [6]
  Abbott efficacy: -0,34
Bemisia tabaci [3]
  White fly mortality: significantly and synergistically higher

## O=C([O-])CC(O)(CC(=O)[O-])C(=O)[O-].[K+].[K+].[K+] [potassium citrate]
Bemisia tabaci [3]; Table 2
  expected control (Colby) less than the observed level of control: 11,7%
Bemisia tabaci [3]; [5]
  Abbott efficacy: 1,74
Bemisia tabaci [3]
  White fly mortality: significantly and synergistically higher
